{
  "source": "ChEMBL document CHEMBL2046362",
  "about": "“Synthesis and evaluation of novel potent HCV NS5A inhibitors” (Bioorg Med Chem Lett, 2012)",
  "key": {"[1]": {"assay": "Cytotoxicity against human PBMC cells", "assay_type": "cell-based", "conditions": "PBMC cells"}, "[2]": {"biological_target": "T1, Nonstructural protein 5A (Hepatitis C virus) (UniProt Q5L478)", "T1 sequence (whole entry)": "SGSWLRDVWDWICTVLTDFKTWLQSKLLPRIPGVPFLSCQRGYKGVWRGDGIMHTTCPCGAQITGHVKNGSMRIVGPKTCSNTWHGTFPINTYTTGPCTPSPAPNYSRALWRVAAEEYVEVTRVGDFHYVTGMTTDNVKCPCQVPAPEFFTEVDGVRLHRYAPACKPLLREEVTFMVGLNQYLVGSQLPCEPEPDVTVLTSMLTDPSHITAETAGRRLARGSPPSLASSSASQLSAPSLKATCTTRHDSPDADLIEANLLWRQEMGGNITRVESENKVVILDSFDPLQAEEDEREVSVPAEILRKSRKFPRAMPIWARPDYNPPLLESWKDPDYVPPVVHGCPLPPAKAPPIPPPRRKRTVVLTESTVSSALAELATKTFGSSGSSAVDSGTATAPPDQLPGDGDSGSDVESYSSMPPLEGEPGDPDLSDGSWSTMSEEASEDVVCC", "assay": "Inhibition of HCV NS5A assessed as antiviral activity against HCV by viral replicon assay", "conditions": "Hepacivirus hominis"}, "[3]": {"assay": "Cytotoxicity against human HuH7 cells", "assay_type": "cell-based, Huh-7"}},
  "data": [
    {"smiles": "COC(=O)N[C@H](C(=O)N1C[C@H](N=[N+]=[N-])C[C@H]1c1ncc(-c2ccc(-c3ccc(-c4cnc([C@@H]5C[C@@H](N=[N+]=[N-])CN5C(=O)[C@@H](NC(=O)OC)C(C)C)[nH]4)cc3)cc2)[nH]1)C(C)C", "values": [
      {"measurement": "CC50", "setting": "[1]", "value": "> 100000", "unit": "nM"},
      {"measurement": "EC90", "setting": "[2]", "value": 0.0542, "unit": "nM"},
      {"measurement": "CC50", "setting": "[3]", "value": "> 1000", "unit": "nM"}
    ]}
  ]
}
